Measurements published in patent US20260232767A1, “INTERLEUKIN-23 RECEPTOR ANTAGONIST PEPTIDES FOR USE IN THE TREATMENT OF PSORIASIS” (Janssen Pharmaceutica NV, priority 2023, published 2026).

System: subjects with moderate-to-severe plaque psoriasis
Assay: Safety, adverse events, Example 2 through Week 56
Type: in vivo, human
Conditions: 25 mg QD, through Week 56
Excerpt: The LTE safety analysis was based on randomized participants in Example who entered the present long-term extension study and received at least one dose of study intervention (including a partial dose) during the study period.

CC(=O)NCCCC[C@@H]1NC(=O)[C@H](Cc2c[nH]c3c(C)cccc23)NC(=O)[C@H]([C@@H](C)O)NC(=O)[C@H](CC(N)=O)NC(=O)[C@@H](NC(C)=O)C(C)(C)SSC(C)(C)[C@@H](C(=O)N[C@@H](Cc2ccc(OCCN)cc2)C(=O)N[C@@H](Cc2ccc3ccccc3c2)C(=O)NC2(C(=O)N[C@@H](CCC(=O)O)C(=O)N[C@@H](CC(N)=O)C(=O)N[C@@H](Cc3cccnc3)C(=O)N(C)CC(N)=O)CCOCC2)NC1=O [IL-23 receptor antagonist peptide, Ac-[Pen]*-N-T-[W(7-Me)]-[Lys(Ac)]-[Pen]*-Phe[4-(2-aminoethoxy)]-[2-Nal]-[THP]-E-N-[3-Pal]-Sarc-NH2 (*[Pen]-[Pen]* formdisulfidebond)]
Cardiac disorders: number of subjects: 0 | Chills: number of subjects: 0 | Cholelithiasis: number of subjects: 0 | Chronic obstructive pulmonary disease: number of subjects: 0 | Coronary artery disease: number of subjects: 0 | Cough: % of subjects: (2.3%) | Cough: number of subjects: 1 | Decreased appetite: % of subjects: (2.3%) | Decreased appetite: number of subjects: 1 | Depression: number of subjects: 0 | Dermal cyst: % of subjects: (2.3%) | Dermal cyst: number of subjects: 1 | Dermatitis acneiform: number of subjects: 0 | Dermatitis contact: number of subjects: 0 | Diabetes mellitus: % of subjects: (2.3%) | Diabetes mellitus: number of subjects: 1 | Diffuse alopecia: % of subjects: (2.3%) | Diffuse alopecia: number of subjects: 1 | Dysuria: number of subjects: 0 | Ear and labyrinth disorders: % of subjects: (2.3%) | Ear and labyrinth disorders: number of subjects: 1 | Endocrine disorders: number of subjects: 0 | Eye disorders: number of subjects: 0 | Eyelid skin dryness: number of subjects: 0 | Fatigue: number of subjects: 0 | General disorders and administration site conditions: % of subjects: (2.3%) | General disorders and administration site conditions: number of subjects: 1 | Goiter: number of subjects: 0 | Haemochromatosis: number of subjects: 0 | Hand dermatitis: number of subjects: 0 | Hematuria: number of subjects: 0 | Hepatobiliary disorders: % of subjects: (2.3%) | Hepatobiliary disorders: number of subjects: 1 | Hypercholesterolemia: number of subjects: 0 | Hyperglycemia: number of subjects: 0 | Hyperlipidemia: number of subjects: 0 | Hypertension: number of subjects: 0 | Hypertransaminasemia: number of subjects: 0 | Hypertriglyceridemia: % of subjects: (2.3%) | Hypertriglyceridemia: number of subjects: 1 | Hypoacusis: number of subjects: 0 | Immune system disorders: number of subjects: 0 | Influenza like illness: number of subjects: 0 | Insomnia: number of subjects: 0 | Intertrigo: number of subjects: 0 | Ketonuria: number of subjects: 0 | Leukocyturia: number of subjects: 0 | Leukopenia: number of subjects: 0 | Libido decreased: number of subjects: 0 | Liver disorder: number of subjects: 0 | Lymphopenia: number of subjects: 0 | Menopause: number of subjects: 0 | Metabolism and nutrition disorders: % of subjects: (4.7%) | Metabolism and nutrition disorders: number of subjects: 2 | Neoplasms benign, malignant and unspecified (incl cysts and polyps): number of subjects: 0 | Nephrolithiasis: number of subjects: 0 | Neutropenia: number of subjects: 0 | Night sweats: number of subjects: 0 | Non-cardiac chest pain: number of subjects: 0 | Ocular cyst: number of subjects: 0 | Oedema peripheral: number of subjects: 0 | Oropharyngeal pain: number of subjects: 0 | Procedural pain: number of subjects: 0 | Productive cough: number of subjects: 0 | Proteinuria: number of subjects: 0 | Pruritus: number of subjects: 0 | Psoriasis: number of subjects: 0 | Psychiatric disorders: number of subjects: 0 | Pyrexia: % of subjects: (2.3%) | Pyrexia: number of subjects: 1 | Rash pruritic: number of subjects: 0 | Renal and urinary disorders: % of subjects: (2.3%) | Renal and urinary disorders: number of subjects: 1 | Renal mass: % of subjects: (2.3%) | Renal mass: number of subjects: 1 | Respiratory, thoracic and mediastinal disorders: % of subjects: (2.3%) | Respiratory, thoracic and mediastinal disorders: number of subjects: 1 | Retinal vein occlusion: number of subjects: 0 | Rhinorrhoea: number of subjects: 0 | Seasonal allergy: number of subjects: 0 | Skin and subcutaneous tissue disorders: % of subjects: (7.0%) | Skin and subcutaneous tissue disorders: number of subjects: 3 | Skin laceration: number of subjects: 0 | Skin papilloma: number of subjects: 0 | Social circumstances: number of subjects: 0 | Steatohepatitis: % of subjects: (2.3%) | Steatohepatitis: number of subjects: 1 | Subjects with 1 or more treatment-emergent serious adverse events: 0 | Subjects with AE leading to discontinuation: Abdominal discomfort: 0 | Subjects with AE leading to discontinuation: Abdominal pain: 0 | Subjects with AE leading to discontinuation: Asthenia: 0 | Subjects with AE leading to discontinuation: Chills: 0 | Subjects with AE leading to discontinuation: Ear and labyrinth disorders: 0 | Subjects with AE leading to discontinuation: Gastrointestinal disorders: 0 | Subjects with AE leading to discontinuation: General disorders and administration site conditions: 0 | Subjects with AE leading to discontinuation: Headache: 0 | Subjects with AE leading to discontinuation: Insomnia: 0 | Subjects with AE leading to discontinuation: Nausea: 0 | Subjects with AE leading to discontinuation: Nervous system disorders: 0 | Subjects with AE leading to discontinuation: Proctalgia: 0 | Subjects with AE leading to discontinuation: Psoriasis: 0 | Subjects with AE leading to discontinuation: Psychiatric disorders: 0 | Subjects with AE leading to discontinuation: Skin and subcutaneous tissue disorders: 0 | Subjects with AE leading to discontinuation: Suicide attempt: 0 | Subjects with AE leading to discontinuation: Vertigo: 0 | Subjects with AE leading to discontinuation: Vomiting: 0 | Subjects with COVID-19 associated AE: SARS-CoV-2 test positive: 0 | Subjects with treatment-emergent AE: Influenza: 0 | Subjects with treatment-emergent serious AE: COVID-19: 0 | Subjects with treatment-emergent serious AE: Cardiac disorders: 0 | Subjects with treatment-emergent serious AE: Cerebrovascular accident: 0 | Subjects with treatment-emergent serious AE: Coronary artery disease: 0 | Subjects with treatment-emergent serious AE: Diverticulitis: 0 | Subjects with treatment-emergent serious AE: Foot deformity: 0 | Subjects with treatment-emergent serious AE: General disorders and administration site conditions: 0 | Subjects with treatment-emergent serious AE: Infected cyst: 0 | Subjects with treatment-emergent serious AE: Infections and infestations: 0 | Subjects with treatment-emergent serious AE: Injury, poisoning and procedural complications: 0 | Subjects with treatment-emergent serious AE: Intervertebral disc protrusion: 0 | Subjects with treatment-emergent serious AE: Ligament injury: 0 | Subjects with treatment-emergent serious AE: Musculoskeletal and connective tissue disorders: 0
